Biological target: T1, human Fatty Acid Synthase (Homo sapiens, UniProt P49327)
T1 construct: made in house
Assay: Human FAS enzyme assay (decrease in NADPH fluorescence)
Assay type: biochemical
Conditions: % inhibition at a concentration of 100 μmolar
Method in brief: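 In-house human FAS was preincubated with compound and NADPH for 15 min at room temperature in 0.1 M Tris pH 7.5 with EDTA, glutathione and BSA. Malonyl CoA and acetyl CoA (500 μM and 150 μM in the added mix) were then added for 60 min. IC50 came from time-zero-subtracted NADPH fluorescence (340/460 nm).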

T1 sequence (P49327 whole entry): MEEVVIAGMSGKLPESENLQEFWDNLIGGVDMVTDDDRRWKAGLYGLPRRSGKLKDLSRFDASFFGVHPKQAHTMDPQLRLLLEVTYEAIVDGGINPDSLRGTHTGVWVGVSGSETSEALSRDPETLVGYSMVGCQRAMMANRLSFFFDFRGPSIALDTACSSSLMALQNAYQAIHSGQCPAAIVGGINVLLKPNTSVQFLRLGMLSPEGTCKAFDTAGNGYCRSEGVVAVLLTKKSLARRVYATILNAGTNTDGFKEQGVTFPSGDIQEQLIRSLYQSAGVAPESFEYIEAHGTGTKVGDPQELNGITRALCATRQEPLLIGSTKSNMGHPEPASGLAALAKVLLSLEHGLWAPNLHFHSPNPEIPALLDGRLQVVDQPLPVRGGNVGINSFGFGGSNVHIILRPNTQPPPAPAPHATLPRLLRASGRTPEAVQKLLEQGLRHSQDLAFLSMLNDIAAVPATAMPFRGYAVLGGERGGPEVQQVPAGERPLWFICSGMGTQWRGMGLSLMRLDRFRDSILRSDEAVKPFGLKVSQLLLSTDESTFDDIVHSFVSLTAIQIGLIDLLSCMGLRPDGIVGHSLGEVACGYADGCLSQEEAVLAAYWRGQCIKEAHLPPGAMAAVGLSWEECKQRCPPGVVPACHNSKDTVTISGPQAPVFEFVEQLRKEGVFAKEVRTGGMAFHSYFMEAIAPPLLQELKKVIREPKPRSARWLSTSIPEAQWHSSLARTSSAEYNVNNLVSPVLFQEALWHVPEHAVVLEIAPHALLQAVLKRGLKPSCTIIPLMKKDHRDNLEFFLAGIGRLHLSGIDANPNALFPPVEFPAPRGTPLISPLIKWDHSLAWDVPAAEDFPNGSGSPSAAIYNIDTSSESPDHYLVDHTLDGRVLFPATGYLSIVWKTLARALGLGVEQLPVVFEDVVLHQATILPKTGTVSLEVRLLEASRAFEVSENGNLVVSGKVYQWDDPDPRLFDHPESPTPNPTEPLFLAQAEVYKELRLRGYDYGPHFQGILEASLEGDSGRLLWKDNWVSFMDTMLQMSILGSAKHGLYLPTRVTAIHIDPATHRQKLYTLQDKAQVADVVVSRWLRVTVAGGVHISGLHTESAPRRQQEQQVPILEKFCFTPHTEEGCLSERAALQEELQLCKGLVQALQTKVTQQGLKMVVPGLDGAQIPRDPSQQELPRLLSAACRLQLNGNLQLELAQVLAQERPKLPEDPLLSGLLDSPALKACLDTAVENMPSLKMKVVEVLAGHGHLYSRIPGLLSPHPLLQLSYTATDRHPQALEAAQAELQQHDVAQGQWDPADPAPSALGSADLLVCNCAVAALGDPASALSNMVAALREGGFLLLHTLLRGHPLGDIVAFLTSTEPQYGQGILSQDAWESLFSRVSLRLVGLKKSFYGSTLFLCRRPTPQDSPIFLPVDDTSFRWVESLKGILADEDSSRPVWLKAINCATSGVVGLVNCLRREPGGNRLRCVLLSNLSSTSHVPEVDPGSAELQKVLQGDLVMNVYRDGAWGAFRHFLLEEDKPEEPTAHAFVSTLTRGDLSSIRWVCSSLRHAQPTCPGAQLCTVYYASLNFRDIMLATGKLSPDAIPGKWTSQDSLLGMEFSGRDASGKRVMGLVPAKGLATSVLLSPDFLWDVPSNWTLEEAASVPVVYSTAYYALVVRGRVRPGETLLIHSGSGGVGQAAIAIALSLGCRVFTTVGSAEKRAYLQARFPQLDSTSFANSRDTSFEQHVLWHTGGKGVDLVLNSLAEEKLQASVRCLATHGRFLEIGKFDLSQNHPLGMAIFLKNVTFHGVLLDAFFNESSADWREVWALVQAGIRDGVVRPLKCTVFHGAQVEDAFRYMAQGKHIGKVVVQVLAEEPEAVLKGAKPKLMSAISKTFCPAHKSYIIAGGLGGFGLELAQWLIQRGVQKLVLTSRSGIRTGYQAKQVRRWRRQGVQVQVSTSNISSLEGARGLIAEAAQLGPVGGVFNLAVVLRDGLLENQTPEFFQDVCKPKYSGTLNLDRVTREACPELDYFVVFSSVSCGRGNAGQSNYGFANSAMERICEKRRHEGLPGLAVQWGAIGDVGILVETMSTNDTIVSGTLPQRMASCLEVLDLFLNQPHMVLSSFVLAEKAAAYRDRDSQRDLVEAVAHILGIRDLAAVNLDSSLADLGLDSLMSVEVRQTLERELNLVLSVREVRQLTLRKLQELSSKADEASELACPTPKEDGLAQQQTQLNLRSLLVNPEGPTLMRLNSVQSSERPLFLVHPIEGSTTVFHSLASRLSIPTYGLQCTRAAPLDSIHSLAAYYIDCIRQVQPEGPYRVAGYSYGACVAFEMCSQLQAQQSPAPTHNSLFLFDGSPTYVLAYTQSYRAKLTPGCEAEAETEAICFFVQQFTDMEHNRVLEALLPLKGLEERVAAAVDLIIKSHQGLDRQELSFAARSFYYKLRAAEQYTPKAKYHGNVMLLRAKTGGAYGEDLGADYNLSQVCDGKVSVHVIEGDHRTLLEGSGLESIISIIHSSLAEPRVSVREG

Row | inhibition at 100 µM [%] | Structure (SMILES)
1 | 88.6 | Cc1ccc(C(=O)N2CCC(c3ccc(C#N)cc3)CC2)cc1NC(=O)NCC(O)C(F)(F)F (racemic) [Example 195, (RS)-1-[5-[4-(4-cyanophenyl)piperidine-1-carbonyl]-2-methyl-phenyl]-3-(3,3,3-trifluoro-2-hydroxy-propyl)urea]
2 | 84.6 | Cc1ccc(C(=O)N2CCC(c3ccc(C#N)cc3)CC2)cc1NC(=O)NCC(F)(F)F [Example 168, 1-[5-[4-(4-cyanophenyl)piperidine-1-carbonyl]-2-methyl-phenyl]-3-(2,2,2-trifluoroethyl)urea]
3 | 87.5 | COCCNC(=O)CCNC(=O)Nc1cc(C(=O)N2CCC(c3ccc(C#N)cc3)CC2)ccc1C [Example 128, 3-[[5-[4-(4-cyanophenyl)piperidine-1-carbonyl]-2-methyl-phenyl]carbamoylamino]-N-(2-methoxyethyl)propanamide]
4 | 91.8 | CCCCNC(=O)NCCNC(=O)Nc1cc(C(=O)N2CCC(c3ccc(C#N)cc3)CC2)ccc1C [Example 172, 1-butyl-3-[2-[[5-[4-(4-cyanophenyl)piperidine-1-carbonyl]-2-methyl-phenyl]carbamoylamino]ethyl]urea]
5 | 80.1 | COC(=O)CNC(=O)Nc1cc(C(=O)N2CCC(c3ccc(C#N)cc3)CC2)ccc1C [Example 72, Methyl 2-[[5-[4-(4-cyanophenyl)piperidine-1-carbonyl]-2-methyl-phenyl]carbamoylamino]acetate]
6 | 98.7 | CCC(=O)NC(C)(C)CNC(=O)Nc1cc(C(=O)N2CCC(c3ccc(C#N)cc3)CC2)ccc1C [Example 262, N-[1-[[5-[4-(4-cyanophenyl)piperidine-1-carbonyl]-2-methyl-phenyl]carbamoylamino]-2-methyl-propan-2-yl]propanamide]
7 | 80.2 | CCN1CCC[C@H]1CNC(=O)Nc1cc(C(=O)N2CCC(c3ccc(C#N)cc3)CC2)ccc1C [Example 149, 3-[5-[4-(4-cyanophenyl)piperidine-1-carbonyl]-2-methyl-phenyl]-1-[[(2S)-1-ethylpyrrolidin-2-yl]methyl]urea]
8 | 86.2 | CNCCNC(=O)Nc1cc(C(=O)N2CCC(c3ccc(C#N)cc3)CC2)ccc1C [Example 116, 1-[5-[4-(4-cyanophenyl)piperidine-1-carbonyl]-2-methyl-phenyl]-3-(2-methylaminoethyl)urea]
9 | 87 | Cc1ccc(C(=O)N2CCC(c3ccc(C#N)cc3)CC2)cc1NC(=O)NCCc1c[nH]cn1 [Example 139, 1-[5-[4-(4-cyanophenyl)piperidine-1-carbonyl]-2-methyl-phenyl]-3-[2-(1H-imidazol-4-yl)ethyl]urea]
10 | 95.7 | Cc1ccc(C(=O)N2CCC(c3ccc(C#N)cc3)CC2)cc1NC(=O)NCC(=O)O [Example 408, 2-[[5-[4-(4-cyanophenyl)piperidine-1-carbonyl]-2-methylphenyl]carbamoylamino]acetic acid]
11 | 90.1 | CCCNC(=O)Nc1cc(C(=O)N2CCC(c3ccc(C#N)cc3)CC2)ccc1C [Example 227, 3-[5-[4-(4-cyanophenyl)piperidine-1-carbonyl]-2-methyl-phenyl]-1-propyl-urea]
12 | 87 | CC(=O)NCCCNC(=O)Nc1cc(C(=O)N2CCC(c3ccc(C#N)cc3)CC2)ccc1C [Example 273, N-[3-[[5-[4-(4-cyanophenyl)piperidine-1-carbonyl]-2-methyl-phenyl]carbamoylamino]propyl]acetamide]
13 | 96.9 | Cc1ccc(C(=O)N2CCC(c3ccc(C#N)cc3)CC2)cc1NC(=O)NCCc1c(C)noc1C [Example 67, 1-[5-[4-(4-cyanophenyl)piperidine-1-carbonyl]-2-methyl-phenyl]-3-[2-(3,5-dimethyl-1,2-oxazol-4-yl)ethyl]urea]
14 | 101 | Cc1ccc(C(=O)N2CCC(c3ccc(C#N)cc3)CC2)cc1NC(=O)NCCc1ccncc1 [Example 62, 1-[5-[4-(4-cyanophenyl)piperidine-1-carbonyl]-2-methyl-phenyl]-3-(2-pyridin-4-ylethyl)urea]

The next lines start with the compound.

Row | Structure (SMILES) | inhibition at 100 µM [%]
15 | Cc1ccc(C(=O)N2CCC(c3ccc(C#N)cc3)CC2)cc1NC(=O)NC1CCC(C(=O)O)CC1 (stereo not shown) [Example 406, 4-[[5-[4-(4-cyanophenyl)piperidine-1-carbonyl]-2-methylphenyl]carbamoylamino]cyclohexane-1-carboxylic acid] | 93.4
16 | Cc1ccc(C(=O)N2CCC(c3ccc(C#N)cc3)CC2)cc1NC(=O)NC(C)c1ccncc1 (stereo not shown) [Example 357, 1-[5-[4-(4-cyanophenyl)piperidine-1-carbonyl]-2-methyl-phenyl]-3-(1-pyridin-4-ylethyl)urea] | 102
17 | Cc1ccc(C(=O)N2CCC(c3ccc(C#N)cc3)CC2)cc1NC(=O)NC1CCC1 [Example 287, 1-[5-[4-(4-cyanophenyl)piperidine-1-carbonyl]-2-methyl-phenyl]-3-cyclobutyl-urea] | 92.4
18 | Cc1ccc(C(=O)N2CCC(c3ccc(C#N)cc3)CC2)cc1NC(=O)NCc1cccnc1 [Example 35, 1-[5-[4-(4-cyanophenyl)piperidine-1-carbonyl]-2-methyl-phenyl]-3-(pyridin-3-ylmethyl)urea] | 91.6
19 | C#CC(C)(C)NC(=O)Nc1cc(C(=O)N2CCC(c3ccc(C#N)cc3)CC2)ccc1C [Example 384, 1-[5-[4-(4-cyanophenyl)piperidine-1-carbonyl]-2-methylphenyl]-3-(2-methylbut-3-yn-2-yl)urea] | 97.6
20 | Cc1ccc(C(=O)N2CCC(c3ccc(C#N)cc3)CC2)cc1NC(=O)NCc1ncc(F)cc1F [Example 367, 1-[5-[4-(4-cyanophenyl)piperidine-1-carbonyl]-2-methylphenyl]-3-[(3,5-difluoropyridin-2-yl)methyl]urea] | 107
21 | Cc1ccc(C(=O)N2CCC(c3ccc(C#N)cc3)CC2)cc1NC(=O)NC1CCCCC1 [Example 228, 1-[5-[4-(4-cyanophenyl)piperidine-1-carbonyl]-2-methyl-phenyl]-3-cyclohexyl-urea] | 82.1
22 | CCS(=O)(=O)N[C@H]1CC[C@H](NC(=O)Nc2cc(C(=O)N3CCC(c4ccc(C#N)cc4)CC3)ccc2C)C1 [Example 324, 3-[5-[4-(4-cyanophenyl)piperidine-1-carbonyl]-2-methyl-phenyl]-1-[(1S,3S)-3-(ethylsulfonylamino)cyclopentyl]urea] | 97.1
23 | Cc1ccc(C(=O)N2CCC(c3ccc(C#N)cc3)CC2)cc1NC(=O)NC12CC3CC(CC(O)(C3)C1)C2 [Example 197, 1-[5-[4-(4-cyanophenyl)piperidine-1-carbonyl]-2-methyl-phenyl]-3-(3-hydroxy-1-adamantyl)urea] | 84.4
24 | Cc1cc(C)c(C(=O)N2CCC(c3ccc(C#N)cc3)CC2)cc1NC(=O)NCc1ccccc1 [Example 12, 3-benzyl-1-[5-[4-(4-cyanophenyl)piperidine-1-carbonyl]-2,4-dimethyl-phenyl]urea] | 84.6
25 | Cc1ccc(NC(=O)NC(C)(C)C)cc1C(=O)N1CCC(c2ccc(C#N)cc2)CC1 [Example 376, 3-tert-butyl-1-[3-[4-(4-cyanophenyl)piperidine-1-carbonyl]-4-methylphenyl]urea] | 68.4
26 | Cc1ccc(NC(=O)NCc2ccccc2F)cc1C(=O)N1CCC(c2ccc(C#N)cc2)CC1 [Example 23, 1-[3-[4-(4-cyanophenyl)piperidine-1-carbonyl]-4-methyl-phenyl]-3-[(2-fluorophenyl)methyl]urea] | 77
27 | Cc1ccc(C(=O)N2CCC(c3ccc(C#N)cc3)CC2)cc1NC(=O)NC1Cc2ccncc2NC1=O (stereo not shown) [Example 99, 1-[5-[4-(4-cyanophenyl)piperidine-1-carbonyl]-2-methyl-phenyl]-3-(2-oxo-3,4-dihydro-1H-1,7-naphthyridin-3-yl)urea] | 90.2
28 | CC(=O)N[C@H]1CC[C@H](NC(=O)Nc2cc(C(=O)N3CCC(c4ccc(C#N)cc4)CC3)ccc2C)C1 [Example 321, N-[(1S,3S)-3-[[5-[4-(4-cyanophenyl)piperidine-1-carbonyl]-2-methyl-phenyl]carbamoylamino]cyclopentyl]acetamide] | 96.7
29 | Cc1ccc(C(=O)N2CCC(c3ccc(C#N)cc3)CC2)cc1NC(=O)N1CCN(C(=O)C(C)C)CC1 [Example 331, N-[5-[4-(4-cyanophenyl)piperidine-1-carbonyl]-2-methyl-phenyl]-4-(2-methylpropanoyl)piperazine-1-carboxamide] | 84.2
30 | N#Cc1ccc(C2CCN(C(=O)c3cc(NC(=O)NCc4ccccc4)ccc3F)CC2)cc1 [Example 224, 1-benzyl-3-[3-[4-(4-cyanophenyl)piperidine-1-carbonyl]-4-fluoro-phenyl]urea] | 71.9
31 | CC(=O)N1CCCC(NC(=O)Nc2cc(C(=O)N3CCC(c4ccc(C#N)cc4)CC3)ccc2C)C1 (stereo not shown) [Example 390, 3-(1-acetylpiperidin-3-yl)-1-[5-[4-(4-cyanophenyl)piperidine-1-carbonyl]-2-methylphenyl]urea] | 90.6
32 | Cc1ccc(C(=O)N2CCC(c3ccc(C#N)cc3)CC2)cc1NC(=O)N[C@H]1CCCC[C@H]1N (relative stereo) [Example 304, 3-[(cis)-2-aminocyclohexyl]-1-[5-[4-(4-cyanophenyl)piperidine-1-carbonyl]-2-methyl-phenyl]urea] | 92.8
33 | Cc1ccc(C(=O)N2CCC(c3ccc(C#N)cc3)CC2)cc1NC(=O)NCc1ccc(-c2csnn2)cc1 [Example 75, 1-[5-[4-(4-cyanophenyl)piperidine-1-carbonyl]-2-methyl-phenyl]-3-[[4-(thiadiazol-4-yl)phenyl]methyl]urea] | 87.4
34 | CCS(=O)(=O)N1CC[C@@H](NC(=O)Nc2cc(C(=O)N3CCC(c4ccc(C#N)cc4)CC3)ccc2C)C1 [Example 219, 3-[5-[4-(4-cyanophenyl)piperidine-1-carbonyl]-2-methyl-phenyl]-1-[(3R)-1-ethylsulfonylpyrrolidin-3-yl]urea] | 88.8
